Data from article PMC9692523, “Exposure to (Poly)phenol Metabolites after a Fruit and Vegetable Supplement Intake: A Double-Blind, Cross-Over, Randomized Trial” (Nutrients, 2022).

Tests used:
[1] = Urinary excretion of phenolic metabolites over 48 h after one 450 mg capsule of the supplement (UHPLC-ESI-MS/MS); assay type: in vivo, human; settings: for Urinary excretion 0 (h) / Urinary excretion 0–3 (h) / Urinary excretion 3–6 (h) / Urinary excretion 6–10 (h) / Urinary excretion 10–14 (h) / Urinary excretion 14–24 (h) / Urinary excretion 24–32 (h) / Urinary excretion 32–48 (h) / Urinary excretion Total (0–48 h): urine, n = 10, mean ± SEM; for Urinary excretion 0 (h): baseline (day before)
Method: (§1) This study was designed as a 3-week randomized, double-blind, cross-over clinical trial. Eligible participants were randomized using simple block randomization of 1:1. Once enrolled, subjects received either one 450 mg capsule of the test supplement or one 450 mg capsule of placebo on the first day of the study (Phase I: D1). After three days of sampling, volunteers started a wash-out period of 1 week and were then enrolled for the second test Phase with ingestion of the opposite supplement (Phase II: D1) (Figure 1). The placebo product was 100% maltodextrin, which was (poly)phenol-free.
Urine samples were collected the day before (baseline) and during the 48 h period following the supplementation (T0-T3, T3-T6, T6-T10, T10-T14, T14-T24, T24-T32 and T32-T48) (Figure 2). Urine volumes at each collection period were registered, and samples were aliquoted and stored at −80 °C until further processing.
Then, urine samples were prepared as previously reported by Brindani and colleagues. Briefly, urine samples were defrosted, vortexed, diluted in 0.1% formic acid in water (1:4, v/v) and centrifuged at 12,000 rpm for 5 min. Finally, urine samples were filtered (0.45 µm nylon filter) prior to UHPLC-ESI-MS/MS analysis.
(§2) Plasma and urine samples were analyzed by a UHPLC DIONEX Ultimate 3000 equipped with a triple quadrupole TSQ Vantage (Thermo Fisher Scientific Inc) fitted with a heated ESI (H-ESI) (Thermo Fisher Scientific Inc) probe, as previously reported. Separations were carried out by means of a Kinetex EVO C18 (100 × 2.1 mm) column, 2.6 µm particle size (Phenomenex, Torrance, CA, USA), installed with a pre-column (Phenomenex). Mobile phase A was 0.2% formic acid in water, and mobile phase B was acetonitrile containing 0.2% formic acid. The gradient started with 5% B, and isocratic conditions were maintained for 0.5 min, reaching 95% B after 6.5 min, followed by 1 min at 95%. The starting gradient was then immediately re-established and maintained for 5 min to re-equilibrate the column. The flow rate was 0.4 mL/min, the injection volume was 5 µL and the column temperature was set at 40 °C.
(§3) The applied MS method consisted of the selective determination of each target precursor ion by the acquisition of characteristic product ion in selective reaction monitoring (SRM) mode (Supplemental Table S2). For all the analyses, the spray voltage was set at 3 kV, the vaporizer temperature at 300 °C and the capillary temperature operated at 270 °C. The sheath gas flow was 50 units, and auxiliary gas pressure was set to 10 units. Ultra-high purity argon gas was used for collision-induced dissociation (CID). The S-lens values were defined for each compound based on infusion parameter optimization. Conversely, for those compounds not available for infusion, the S-lens values were set using the values obtained for the chemically closest available standards. Quantification was performed with calibration curves of standards when available or using the most structurally similar compound. Data processing was performed using Xcalibur software (Thermo Scientific Inc., San Jose, CA, USA).
All data were expressed as mean values ± standard deviation (SD) and mean values ± standard error to the mean (SEM) for metabolites in blood and urine samples. PKSolver add-on program in Microsoft Excel was used to determine pharmacokinetic parameters of blood phenolic metabolites, including time to reach the maximum plasma concentration (Tmax, h), maximum plasma concentration (Cmax, nmol/L), area under the curve (AUC0-24, nmol/L·h), and time of presence of metabolites in circulation (Tpres, h). Tpres was calculated by taking the time interval between the first appearance and the last appearance of the considered metabolite. Coefficient of variation (CV) was evaluated for each metabolite and multivariate principal component analysis (PCA) was applied to explore the inter-individual variation in the urinary metabolites among the participants. […]

[2] = Plasma pharmacokinetics of phenolic metabolites after one 450 mg capsule of the supplement (UHPLC-ESI-MS/MS); assay type: in vivo, human; settings: for Cmax / Tmax / Tpres (time of presence of metabolites in circulation): n = 10, mean ± SEM; for Tpres (time of presence of metabolites in circulation): interval between first and last appearance; for AUC0-24: supplemented volunteers (n = 10), 450 mg capsule, mean ± SEM
Method: as §1
On the day of the test (D1), volunteers visited the Research Center after an overnight fast. Blood was collected at T0 to determine baseline levels of plasma phenolic metabolites. Then, volunteers were invited to take the 450 mg capsule of the supplement or the placebo with 250 mL of still water (Figure 2). Additional blood samples were then collected at 1 h (D1, T1), 2 h (D1, T2), 3 h (D1, T3), 4 h (D1, T4), 5 h (D1, T5), 6 h (D1, T6), 8 h (D1, T8), 10 h (D1, T10) and 24 h (D2, T24) after capsule intake. Blood was taken from the basilica vein and centrifuged at 3000 rpm for 10 min at 4 °C. Plasma was immediately extracted and frozen at −80 °C for further analysis.
Plasma samples were then extracted using a solid phase extraction (SPE) method, as previously reported by Castello and colleagues. Briefly, 350 µL of plasma samples was diluted (1:1) with phosphoric acid 4% (v/v). After plate activation, 600 µL of the diluted plasma samples was loaded on a 96 well µ-SPE HLB (Oasis® HLB µElution Plate 30 µm, Waters, Milford, Massachusetts, MA, USA). Samples were washed with 200 µL of water and 200 µL of 0.2% (v/v) acetic acid. Finally, samples were eluted with 60 µL of methanol for UHPLC-ESI-MS/MS analysis.
as §2, §3
All data were expressed as mean values ± standard deviation (SD) and mean values ± standard error to the mean (SEM) for metabolites in blood and urine samples. […]

| SMILES | Urinary excretion 0 (h) [1] [µg] | Urinary excretion 0–3 (h) [1] [µg] | Urinary excretion 3–6 (h) [1] [µg] | Urinary excretion 6–10 (h) [1] [µg] | Urinary excretion 10–14 (h) [1] [µg] | Urinary excretion 14–24 (h) [1] [µg] | Urinary excretion 24–32 (h) [1] [µg] | Urinary excretion 32–48 (h) [1] [µg] | Urinary excretion Total (0–48 h) [1] | Cmax [2] [nM] | Tmax [2] [h] | Tpres (time of presence of metabolites in circulation) [2] [h] | AUC0-24 [2] [µM·h] | Time of maximum (peak) urinary excretion ([1]; collection interval post-consumption) [h] |
| --- | --- | --- | --- | --- | --- | --- | --- | --- | --- | --- | --- | --- | --- | --- |
| O=C1CCC(Cc2cccc(O[C@@H]3O[C@H](C(=O)O)[C@@H](O)[C@H](O)[C@H]3O)c2)O1 (stereo partly drawn) [compound 17] | 15.01 ± 15.01 | 15.42 ± 15.42 | 196.48 ± 138.99 | 169.91 ± 105.95 | 65.96 ± 36.27 | 468.44 ± 330.34 | 81.71 ± 28.26 | 16.56 ± 16.56 | 1029.49 ± 394.77 µg | 6.34 ± 1.66 | 5.88 ± 0.95 | 7.13 ± 2.27 | 0.022 ± 0.00641 |  |
| O=C1CCC(Cc2ccc(OS(=O)(=O)O)c(O)c2)O1 (stereo not drawn) [compound 21] | 344.60 ± 186.50 | 166.29 ± 126.77 | 2548.76 ± 1207.06 | 2277.16 ± 795.52 | 919.49 ± 314.48 | 3618.13 ± 985.44 | 1346.37 ± 481.02 | 389.78 ± 215.48 | 11,610.60 ± 1923.81 µg | 40 ± 16.9 | 7.00 ± 0.75 | 12.15 ± 1.84 | 0.1417 ± 0.05037 |  |
| O=C1CCC(Cc2cccc(OS(=O)(=O)O)c2)O1 (stereo not drawn) [compound 23] | 41.07 ± 30.35 | 4.29 ± 2.19 | 52.98 ± 22.54 | 175.24 ± 98.80 | 76.01 ± 39.48 | 345.14 ± 198.47 | 100.92 ± 46.88 | 34.61 ± 16.03 | 830.26 ± 275.43 µg | 2.15 ± 0.48 | 8.22 ± 2.13 | 9.33 ± 2.45 | 0.01011 ± 0.00389 |  |
| COc1ccc(C2CC(=O)c3c(O)cc(OC4OC(C(=O)O)C(O)C(O)C4O)cc3O2)cc1O (stereo not drawn) [compound 28] | 14.48 ± 5.94 | 4.02 ± 2.90 | 20.07 ± 4.27 | 28.56 ± 5.46 | 9.57 ± 2.19 | 30.72 ± 8.04 | 19.07 ± 5.57 | 22.33 ± 5.83 | 148.81 ± 14.88 µg | 19.9 ± 2.31 | 7.11 ± 0.90 | 17.83 ± 1.54 | 0.15205 ± 0.02784 |  |
| O=C(O)C1OC(Oc2cc(CCO)ccc2O)C(O)C(O)C1O (stereo not drawn) [compound 33] |  | 53.75 ± 15.51 | 69.04 ± 13.20 | 38.02 ± 8.17 | 10.90 ± 3.90 | 10.23 ± 3.71 | 0.75 ± 0.75 |  | 182.69 ± 19.99 µg | 24.9 ± 5.63 | 1.45 ± 0.32 | 8.45 ± 2.19 | 0.05092 ± 0.00585 | 3 to 6 |
| O=C(O)CCc1cccc(O)c1.O=C(O)CCc1cccc(O)c1 [compound 40] | 96.20 ± 96.20 | 85.67 ± 85.67 |  |  | 287.94 ± 287.94 | 262.06 ± 138.26 |  | 676.70 ± 383.40 | 1408.57 ± 544.97 µg | 443 ± 99.3 | 7.13 ± 0.77 | 7.50 ± 2.38 | 1.55429 ± 0.64433 |  |
| O=C(O)CCc1ccc(O)c(OS(=O)(=O)O)c1 [compound 41] | 27.49 ± 27.49 | 101.08 ± 52.47 | 103.59 ± 54.34 | 41.08 ± 16.51 | 56.67 ± 24.78 | 389.70 ± 95.00 | 208.69 ± 73.47 | 289.45 ± 118.16 | 1217.76 ± 256.95 µg | 18.2 ± 11.3 | 4.56 ± 1.13 | 9.06 ± 2.56 | 0.02741 ± 0.01121 |  |
